Results published in patent publication US8481532B2, “PDE-10 inhibitors” (EnVivo Pharmaceuticals, Inc., priority 2008, dated 2013).
Read-outs that look alike come from different tables or passages of the source.

How the values were obtained:
Human PDE10A1 = Human PDE10A1 (Homo sapiens, UniProt Q9Y233); assay: hPDE10A1 Enzyme Inhibition ([3H]-cAMP scintillation assay); type: biochemical
Protocol: • hPDE10A1 Enzyme Activity: […] samples of serially diluted Human PDE10A1 enzyme were incubated with 50 μl of [^3H]-cAMP for 20 minutes (at 37° C.). Reactions were carried out in Greiner 96 deep well 1 ml master-block. The enzyme was diluted in 20 mM Tris HCl pH7.4 and [^3H]-cAMP was diluted in 10 mM MgCl2, 40 mM Tris.HCl pH 7.4. The reaction was terminated by denaturing the PDE enzyme (at 70° C.) after which [^3H]-5′-AMP was converted to [^3H]-adenosine by adding 25 μl snake venom nucleotidase and incubating for 10 minutes (at 37° C.). Adenosine, being neutral, was separated from charged cAMP or AMP by the addition of 200 μl Dowex resin. Samples were shaken for 20 minutes then centrifuged for 3 minutes at 2,500 r.p.m. 50 μl of supernatant was removed and added to 200 μl of MicroScint-20 in white plates (Greiner 96-well Optiplate) and shaken for 30 minutes before reading on Perkin Elmer TopCount Scintillation Counter. • hPDE10A1 Enzyme Inhibition: To check inhibition profile 11 μl of serially diluted inhibitor was added to 50 μl of [^3H]-cAMP and 50 μl of diluted Human PDE10A1 and assay was carried out as in the enzyme activity assay. Data was analysed using Prism software (GraphPad Inc).

rats = settings: cited from earlier work
[1] = Human PDE10A1, [3H]-cAMP substrate, 20 minutes at 37° C., read-out: hPDE10A1 IC50 Band

Chain of Human PDE10A1 (Q9Y233 1-779 isoform Q9Y233-1): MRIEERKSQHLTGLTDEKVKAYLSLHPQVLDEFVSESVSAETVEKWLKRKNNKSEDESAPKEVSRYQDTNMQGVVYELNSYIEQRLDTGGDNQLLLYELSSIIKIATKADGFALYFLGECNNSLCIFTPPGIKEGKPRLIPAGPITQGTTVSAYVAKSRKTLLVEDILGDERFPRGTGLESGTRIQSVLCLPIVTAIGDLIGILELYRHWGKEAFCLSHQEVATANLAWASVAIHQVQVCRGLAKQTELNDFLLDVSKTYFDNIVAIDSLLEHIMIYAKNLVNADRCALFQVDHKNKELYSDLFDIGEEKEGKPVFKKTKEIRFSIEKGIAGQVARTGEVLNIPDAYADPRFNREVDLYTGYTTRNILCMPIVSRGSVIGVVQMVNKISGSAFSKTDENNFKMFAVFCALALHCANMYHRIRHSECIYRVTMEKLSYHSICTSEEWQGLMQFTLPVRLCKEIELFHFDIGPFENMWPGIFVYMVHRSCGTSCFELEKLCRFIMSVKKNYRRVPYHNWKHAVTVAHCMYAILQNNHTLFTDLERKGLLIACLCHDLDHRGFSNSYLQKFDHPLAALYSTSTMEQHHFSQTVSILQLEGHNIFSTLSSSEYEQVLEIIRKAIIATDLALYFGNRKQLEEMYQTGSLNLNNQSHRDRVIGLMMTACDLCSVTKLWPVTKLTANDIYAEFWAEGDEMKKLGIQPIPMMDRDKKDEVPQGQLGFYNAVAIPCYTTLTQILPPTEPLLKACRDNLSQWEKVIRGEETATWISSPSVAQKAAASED

CC(C)(C)c1ccc(C2CC2C(=O)N/N=C/c2cccc3cnccc23)cc1 (stereo not shown) [Example 122, (E)-2-(4-tert-butylphenyl)-N′-(isoquinolin-5-ylmethylene) cyclopropanecarbohydrazide]
IC50 (Human PDE10A1): < 0.2 µM

O=C(N/N=C/c1cccc2cnccc12)C1CC1c1ccc(-c2ccccc2)cc1 (stereo not shown) [Example 196, (E)-2-(biphenyl-4-yl)-N′-(isoquinolin-5-ylmethylene)cyclopropanecarbohydrazide]
IC50 (Human PDE10A1; [1]): < 0.2 µM

C/C(=N\NC(=O)C1CC1c1ccc(C(C)(C)C)cc1)c1cccc2cnccc12 (stereo not shown) [Example 197, (E)-2-(4-tert-butylphenyl)-N′-(1-(isoquinolin-5-yl)ethylidene)cyclopropanecarbohydrazide]
IC50 (Human PDE10A1; [1]): < 1 µM

CN(/N=C/c1cccc2cnccc12)C(=O)C1CC1c1ccc(C(C)(C)C)cc1 (stereo not shown) [Example 198, (E)-2-(4-tert-butylphenyl)-N′-(isoquinolin-5-ylmethylene)-N-methylcyclopropanecarbohydrazide]
IC50 (Human PDE10A1; [1]): < 0.2 µM

COc1ccc(Cc2nccc3cc(OC)c(OC)cc23)cc1OC [papaverine]
apomorphine induced stereotypies (rats): reduces | haloperidol induced catalepsy (rats): increases | rat brain dopamine levels (rats): reduces
